Columns and labels:
Assay in all cases: relative viability (nuclei count vs DMSO), 5 days (fraction); higher = more cells survive
LU99A = tested on: LU99A
Procedure, shortened: (§1)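 Lung cancer cell lines were pin-tool dosed in 1536-well plates on the day after seeding, with either a lone drug or a fixed anchor-drug dose plus five library-drug doses (not always all listed) in √10 steps. Nuclei were counted on 4× images after 5 days. Relative viability is the ratio of treated-well to vehicle-well nuclei counts, with each value a median of duplicate plates.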

SK-MES-1 = tested on: SK-MES-1
Procedure, shortened: as §1

HARA = tested on: HARA
Procedure, shortened: as §1

COR-L23 = tested on: COR-L23
Procedure, shortened: as §1

COR-L 105 = tested on: COR-L 105
Procedure, shortened: as §1

LXF-289 = tested on: LXF-289
Procedure, shortened: as §1

NCI-H727 = tested on: NCI-H727
Procedure, shortened: as §1

NCI-H2170 = tested on: NCI-H2170
Procedure, shortened: as §1

CAL-12T = tested on: CAL-12T
Procedure, shortened: as §1

NCI-H2009 = tested on: NCI-H2009
Procedure, shortened: as §1

HCC-366 = tested on: HCC-366
Procedure, shortened: as §1

PC-3 [JPC-3] = tested on: PC-3 [JPC-3]
Procedure, shortened: as §1

NCI-H2126 = tested on: NCI-H2126
Procedure, shortened: as §1

BEN = tested on: BEN
Procedure, shortened: as §1

HCC-15 = tested on: HCC-15
Procedure, shortened: as §1

HCC-827 = tested on: HCC-827
Procedure, shortened: as §1

NCI-H1993 = tested on: NCI-H1993
Procedure, shortened: as §1

HCC-44 = tested on: HCC-44
Procedure, shortened: as §1

LCLC-97TM1 = tested on: LCLC-97TM1
Procedure, shortened: as §1

PC-14 = tested on: PC-14
Procedure, shortened: as §1

LC-2-ad = tested on: LC-2-ad
Procedure, shortened: as §1

HOP-62 = tested on: HOP-62
Procedure, shortened: as §1

NCI-H2087 = tested on: NCI-H2087
Procedure, shortened: as §1

SMILES: O=C(O)CCCCC(CCSCc1ccccc1)SCc1ccccc1 (centres undefined) [CPI-613] + N=C(N)NC(=N)NCCc1ccccc1 [Phenformin] (partner 250 µM)
- relative viability (LU99A; first compound 5 µM): 0.801
- relative viability (LU99A; first compound 15.81 µM): 0.793
- relative viability (LU99A; first compound 50 µM): 0.823
- relative viability (LU99A; first compound 158.11 µM): 0.733
- relative viability (LU99A; first compound 500 µM): 0.0986
- relative viability (SK-MES-1; first compound 5 µM): 0.642
- relative viability (SK-MES-1; first compound 15.81 µM): 0.623
- relative viability (SK-MES-1; first compound 50 µM): 0.599
- relative viability (SK-MES-1; first compound 158.11 µM): 0.147
- relative viability (SK-MES-1; first compound 500 µM): 0.0887
- relative viability (HARA; first compound 15.81 µM): 0.394
- relative viability (HARA; first compound 50 µM): 0.444
- relative viability (HARA; first compound 158.11 µM): 0.267
- relative viability (HARA; first compound 500 µM): 0.0155
- relative viability (COR-L23; first compound 5 µM): 0.438
- relative viability (COR-L23; first compound 15.81 µM): 0.393
- relative viability (COR-L23; first compound 50 µM): 0.475
- relative viability (COR-L23; first compound 158.11 µM): 0.199
- relative viability (COR-L23; first compound 500 µM): 0.0157
- relative viability (COR-L 105; first compound 5 µM): 0.428
- relative viability (COR-L 105; first compound 15.81 µM): 0.405
- relative viability (COR-L 105; first compound 50 µM): 0.443
- relative viability (COR-L 105; first compound 158.11 µM): 0.279
- relative viability (COR-L 105; first compound 500 µM): 0.112
- relative viability (LXF-289; first compound 5 µM): 0.516
- relative viability (LXF-289; first compound 15.81 µM): 0.504
- relative viability (LXF-289; first compound 50 µM): 0.511
- relative viability (LXF-289; first compound 158.11 µM): 0.443
- relative viability (LXF-289; first compound 500 µM): 0.0481
- relative viability (NCI-H727; first compound 5 µM): 0.548
- relative viability (NCI-H727; first compound 15.81 µM): 0.693
- relative viability (NCI-H727; first compound 50 µM): 0.62
- relative viability (NCI-H727; first compound 158.11 µM): 0.353
- relative viability (NCI-H727; first compound 500 µM): 0.0983
- relative viability (NCI-H2170; first compound 5 µM): 0.435
- relative viability (NCI-H2170; first compound 15.81 µM): 0.404
- relative viability (NCI-H2170; first compound 50 µM): 0.38
- relative viability (NCI-H2170; first compound 158.11 µM): 0.352
- relative viability (NCI-H2170; first compound 500 µM): 0.11
- relative viability (CAL-12T; first compound 5 µM): 0.538
- relative viability (CAL-12T; first compound 15.81 µM): 0.546
- relative viability (CAL-12T; first compound 50 µM): 0.464
- relative viability (CAL-12T; first compound 158.11 µM): 0.0459
- relative viability (CAL-12T; first compound 500 µM): 0.0085
- relative viability (NCI-H2009; first compound 5 µM): 0.478
- relative viability (NCI-H2009; first compound 15.81 µM): 0.443
- relative viability (NCI-H2009; first compound 50 µM): 0.42
- relative viability (NCI-H2009; first compound 158.11 µM): 0.0548
- relative viability (NCI-H2009; first compound 500 µM): 0.0187
- relative viability (HCC-366; first compound 5 µM): 0.554
- relative viability (HCC-366; first compound 15.81 µM): 0.567
- relative viability (HCC-366; first compound 50 µM): 0.651
- relative viability (HCC-366; first compound 158.11 µM): 0.239
- relative viability (HCC-366; first compound 500 µM): 0.0045
- relative viability (PC-3 [JPC-3]; first compound 5 µM): 0.474
- relative viability (PC-3 [JPC-3]; first compound 15.81 µM): 0.495
- relative viability (PC-3 [JPC-3]; first compound 50 µM): 0.494
- relative viability (PC-3 [JPC-3]; first compound 158.11 µM): 0.465
- relative viability (PC-3 [JPC-3]; first compound 500 µM): 0.0769
- relative viability (NCI-H2126; first compound 5 µM): 0.535
- relative viability (NCI-H2126; first compound 15.81 µM): 0.524
- relative viability (NCI-H2126; first compound 50 µM): 0.585
- relative viability (NCI-H2126; first compound 158.11 µM): 0.368
- relative viability (NCI-H2126; first compound 500 µM): 0.0437
- relative viability (BEN; first compound 5 µM): 0.242
- relative viability (BEN; first compound 15.81 µM): 0.251
- relative viability (BEN; first compound 50 µM): 0.255
- relative viability (BEN; first compound 158.11 µM): 0.25
- relative viability (BEN; first compound 500 µM): 0.215
- relative viability (HCC-15; first compound 5 µM): 0.435
- relative viability (HCC-15; first compound 15.81 µM): 0.439
- relative viability (HCC-15; first compound 50 µM): 0.414
- relative viability (HCC-15; first compound 158.11 µM): 0.178
- relative viability (HCC-15; first compound 500 µM): 0.0244
- relative viability (HCC-827; first compound 5 µM): 0.361
- relative viability (HCC-827; first compound 15.81 µM): 0.374
- relative viability (HCC-827; first compound 50 µM): 0.41
- relative viability (HCC-827; first compound 158.11 µM): 0.318
- relative viability (HCC-827; first compound 500 µM): 0.185
- relative viability (NCI-H1993; first compound 5 µM): 0.492
- relative viability (NCI-H1993; first compound 15.81 µM): 0.532
- relative viability (NCI-H1993; first compound 50 µM): 0.492
- relative viability (NCI-H1993; first compound 158.11 µM): 0.473
- relative viability (NCI-H1993; first compound 500 µM): 0.42
- relative viability (HCC-44; first compound 5 µM): 0.15
- relative viability (HCC-44; first compound 15.81 µM): 0.195
- relative viability (HCC-44; first compound 50 µM): 0.185
- relative viability (HCC-44; first compound 158.11 µM): 0.268
- relative viability (HCC-44; first compound 500 µM): 0.248
- relative viability (LCLC-97TM1; first compound 5 µM): 0.446
- relative viability (LCLC-97TM1; first compound 15.81 µM): 0.325
- relative viability (LCLC-97TM1; first compound 50 µM): 0.405
- relative viability (LCLC-97TM1; first compound 158.11 µM): 0.371
- relative viability (LCLC-97TM1; first compound 500 µM): 0.0437
- relative viability (PC-14; first compound 5 µM): 0.463
- relative viability (PC-14; first compound 15.81 µM): 0.458
- relative viability (PC-14; first compound 50 µM): 0.567
- relative viability (PC-14; first compound 158.11 µM): 0.386
- relative viability (PC-14; first compound 500 µM): 0.207
- relative viability (LC-2-ad; first compound 5 µM): 0.569
- relative viability (LC-2-ad; first compound 15.81 µM): 0.558
- relative viability (LC-2-ad; first compound 50 µM): 0.567
- relative viability (LC-2-ad; first compound 158.11 µM): 0.396
- relative viability (LC-2-ad; first compound 500 µM): 0.0712
- relative viability (HOP-62; first compound 5 µM): 0.67
- relative viability (HOP-62; first compound 15.81 µM): 0.632
- relative viability (HOP-62; first compound 50 µM): 0.62
- relative viability (HOP-62; first compound 158.11 µM): 0.437
- relative viability (HOP-62; first compound 500 µM): 0.204
- relative viability (NCI-H2087; first compound 5 µM): 0.387
- relative viability (NCI-H2087; first compound 15.81 µM): 0.438
- relative viability (NCI-H2087; first compound 50 µM): 0.379
- relative viability (NCI-H2087; first compound 158.11 µM): 0.129
- relative viability (NCI-H2087; first compound 500 µM): 0.0066
